# According to ChEMBL document CHEMBL3734711, “Discovery of novel sphingosine kinase 1 inhibitors via structure-based hierarchical virtual screening” (Medchemcomm, 2015):
# Active and inactive are the calls of the source. The rule behind the calls is not given here.
# Key:
# Sphingosine kinase 1 [1] = biological target: T1, Sphingosine kinase 1 (Homo sapiens, UniProt Q9NYA1); assay: Inhibition of human recombinant SphK1 at 50 uM preincubated for 5 mins followed by substrate addition measured for 60 mins by plate reader assay
# [2] = biological target: T2, Sphingosine kinase 2 (Homo sapiens) (UniProt Q9NRA0); assay: Inhibition of human recombinant SphK2 at 500 uM preincubated for 5 mins followed by substrate addition measured for 60 mins by plate reader assay
# T2 sequence (whole entry): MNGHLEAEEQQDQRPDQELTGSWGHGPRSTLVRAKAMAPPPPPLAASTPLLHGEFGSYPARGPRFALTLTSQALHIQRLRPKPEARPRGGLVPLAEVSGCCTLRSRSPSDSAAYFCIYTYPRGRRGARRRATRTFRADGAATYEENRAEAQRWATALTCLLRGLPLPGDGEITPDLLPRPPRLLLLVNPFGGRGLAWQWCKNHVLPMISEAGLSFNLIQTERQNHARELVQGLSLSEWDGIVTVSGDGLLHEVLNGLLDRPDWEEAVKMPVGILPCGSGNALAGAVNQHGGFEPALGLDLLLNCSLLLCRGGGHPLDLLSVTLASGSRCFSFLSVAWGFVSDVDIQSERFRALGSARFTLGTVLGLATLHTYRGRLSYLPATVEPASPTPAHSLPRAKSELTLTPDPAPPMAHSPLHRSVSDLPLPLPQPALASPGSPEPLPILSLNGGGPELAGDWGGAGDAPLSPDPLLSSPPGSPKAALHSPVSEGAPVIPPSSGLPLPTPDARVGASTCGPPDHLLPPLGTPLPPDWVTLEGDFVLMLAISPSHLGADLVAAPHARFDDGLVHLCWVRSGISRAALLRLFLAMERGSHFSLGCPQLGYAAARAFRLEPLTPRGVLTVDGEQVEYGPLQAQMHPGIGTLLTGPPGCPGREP
# [3] = biological target: T2, Sphingosine kinase 2 (Homo sapiens); assay: Inhibition of human recombinant SphK2 at 50 uM preincubated for 5 mins followed by substrate addition measured for 60 mins by plate reader assay
# Sphingosine kinase 1 [4] = biological target: T1, Sphingosine kinase 1; assay: Inhibition of human recombinant SphK1 preincubated for 5 mins followed by substrate addition measured for 60 mins by plate reader assay
# Sphingosine kinase 2 = biological target: T3, Sphingosine kinase 2 (Homo sapiens, UniProt Q9NRA0); assay: Inhibition of human recombinant SphK2 preincubated for 5 mins followed by substrate addition measured for 60 mins by plate reader assay
# T3 sequence (Q9NRA0 whole entry): T2 sequence (whole entry)
# U-937 = assay: Antiproliferative activity against human U937 cells after 72 hrs by MTT assay; type: functional, cell-based
# T1 sequence (Q9NYA1 whole entry): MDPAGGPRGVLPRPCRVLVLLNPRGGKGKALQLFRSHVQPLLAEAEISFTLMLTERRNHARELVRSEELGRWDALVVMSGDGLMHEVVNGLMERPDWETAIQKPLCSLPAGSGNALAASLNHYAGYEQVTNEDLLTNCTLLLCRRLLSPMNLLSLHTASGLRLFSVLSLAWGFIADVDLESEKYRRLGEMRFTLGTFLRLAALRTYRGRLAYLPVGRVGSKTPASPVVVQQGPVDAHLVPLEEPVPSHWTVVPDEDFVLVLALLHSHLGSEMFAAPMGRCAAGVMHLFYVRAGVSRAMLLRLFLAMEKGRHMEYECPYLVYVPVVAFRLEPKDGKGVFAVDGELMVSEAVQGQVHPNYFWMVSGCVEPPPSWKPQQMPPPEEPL
Compound,inhibition (Sphingosine kinase 1 [1]) [%],inhibition [2],inhibition [3],IC50 (Sphingosine kinase 1 [4]) [µM],IC50 (Sphingosine kinase 2) [µM],Activity (U-937)
O=C(N/N=C/c1cccc(OCc2ccccc2)c1)c1cc(O)c(O)c(O)c1,> 60,Active,Active,23.1,17.1,Dose-dependent effect
CCCCCCCCCCCCC/C=C/[C@@H](O)[C@H](CO)N(C)C [DIMETHYLSPINGOSINE],–,–,–,–,16.3,–
CCCOc1ccc(N2C(=O)CC(Nc3ccc(CCO)cc3)C2=O)cc1 (configuration not stated),> 60,Active,Active,61.6,62.6,–
CCCCCCCCCCCCCC(=O)Nc1nc2ccccc2[nH]1,> 60,Active,Active,40.5,31.3,–
